Laboratory results as given in doi:10.1101/187716v3 (bioRxiv, 2017).

Tested on: orthotopic 4T1 breast tumors
Experiment: PET-CT imaging of tumor accumulation in orthotopic 4T1 breast tumor mice
Type: in vivo, Balb/c mice
Conditions: scans at 10 min, 2, 6, 12, 24, 48 h

Cys-Tyr-Ahx-LinTT1 [LinTT1-Tyr-^124I-PS]
time post injection at which tumor accumulation is seen by PET: 2 h
